This assay addresses T1, PKM2, human recombinant (Homo sapiens, UniProt P14618).
T1 construct: purchased BPS 50295
The assay is described as follows: PKM2 enzymatic activity assay (Kinase-Glo Plus luminescence).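 On Max activity Group: percent increase over no-compound signal after subtracting the no-PKM2 background.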 The settings on record: for AC50: 0.1 nM PKM2, 0.1 mM ADP, 0.5 mM PEP, 1 hour, room temperature, read-out: AC50 group; for Emax: 1 h, read-out: Max activity Group; for Max activity: 30 μM. The format is biochemical. As to the method: PKM2 performs the following enzymatic reaction, where the PKM2 substrates, PEP (phosphoenolpyruvate) and ADP, are converted to pyruvate and ATP as follows:
All of the enzymatic reactions were conducted in duplicates at room temperature for 1 hour in a 50 μL mixture containing: • PKM2 assay buffer (50 mM Imidazole, pH 7.2; 7 mM MgCl2; 50 mM KCl; 0.01% Tween; • and 0.05% BSA), 0.1 mM ADP, 0.5 mM PEP, 0.1 nM PKM2 enzyme (PKM2, human recombinant (BPS catalog number 50295)) and the indicated test compound. Fructose 1,6 biphosphat e, (FBP (Sigma)) was used as a positive control for activation at concentration of 0.5 mM. After enzymatic reactions, 50 μL of Kinase-Glo® Plus reagent (Promega kit) was added to each well and luminescence was measured using a BioTek Synergy™ 2 microplate reader.
PKM2 activity assays were performed in duplicates at each concentration. The luminescence data were analyzed using the computer software, GraphPad PRISM®. In the absence of the compound, the luminescence was defined as 0% activity. The percent activity in the presence of each compound was calculated according to the following equation:
% Activity=[(L−Lb)/(Lt−Lb)−1]×100%
where L=the luminescence in the presence of the test compound, Lb=the luminescence in the absence of PKM2, and Lt=the luminescence intensity in the absence of the test compound. The % activity values versus a series of compound concentrations were plotted using non-linear regression analysis of Sigmoidal dose-response curve generated with the equation Y=B+(T−B)/1+10^((LogEC50-X)×Hill Slope), where Y=percent activity, B=minimum percent activity, T=maximum percent activity, X=logarithm of compound and Hill Slope=slope factor or Hill coefficient. The AC50 values, shown in Table 2 were determined for the indicated test compounds as the concentration causing a half-maximal percent activity.
A general note: Kinase-Glo reads ATP consumption through a luciferase reaction.

Setting [1] is: maximum percent activity, luminescence without compound = 0% activity.

30 compounds from patent US20120302609A1, “Pyrazolines for the Modulation of PKM2” (Dynamix Pharmaceuticals LTD., priority 2011, published 2012) can be followed below.

T1 sequence (P14618 whole entry): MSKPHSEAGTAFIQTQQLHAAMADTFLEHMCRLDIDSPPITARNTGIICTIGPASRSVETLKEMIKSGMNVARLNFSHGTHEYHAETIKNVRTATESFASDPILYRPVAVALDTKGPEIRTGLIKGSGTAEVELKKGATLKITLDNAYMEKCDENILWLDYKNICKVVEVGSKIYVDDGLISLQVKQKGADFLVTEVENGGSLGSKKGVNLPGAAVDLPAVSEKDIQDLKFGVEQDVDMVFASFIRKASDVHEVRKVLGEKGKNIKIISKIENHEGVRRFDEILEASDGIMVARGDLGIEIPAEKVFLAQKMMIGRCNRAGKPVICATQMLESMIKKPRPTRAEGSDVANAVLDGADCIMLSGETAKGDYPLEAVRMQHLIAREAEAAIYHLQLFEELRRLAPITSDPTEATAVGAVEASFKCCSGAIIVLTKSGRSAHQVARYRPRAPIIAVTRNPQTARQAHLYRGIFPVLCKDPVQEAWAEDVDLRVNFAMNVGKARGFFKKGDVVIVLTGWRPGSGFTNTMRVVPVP

Consider `COc1ccc(C2CC(c3ccc(NS(=O)(=O)c4ccc(OC)cc4)cc3)=NN2C(C)=O)cc1` (racemic) [Compound 19A, N-(4-(1-Acetyl-5-(4-methoxyphenyl)-4,5-dihydro-1H-pyrazol-3-yl)phenyl)-4-methoxy benzenesulfonamide], for which the half-maximal activity concentration (AC50) was no more than 1 µM. For the same compound, the Emax under setting [1] is no less than 200%. Taken in the same sequence, the figures for `CC(=O)N1N=C(c2ccc(NS(=O)(=O)c3ccc(F)cc3)cc2)CC1c1ccc(F)cc1` (racemic) [Compound 25A, N-(4-(1-Acetyl-5-(4-fluorophenyl)-4,5-dihydro-1H-pyrazol-3-yl)phenyl)-4-fluoro benzenesulfonamide] were no more than 1 µM and no more than 130%. Turning to `CCS(=O)(=O)Nc1ccc(C2=NN(C(C)=O)C(c3ccc(OC)cc3)C2)cc1` (single isomer, unassigned) [Compound 2A, N-(4-(1-Acetyl-5-(4-methoxyphenyl)-4,5-dihydro-1H-pyrazol-3-yl)phenyl)ethane sulfonamide], the concentration at half-maximal activity (AC50) is no more than 1 µM. `CCS(=O)(=O)Nc1ccc(C2=NN(C(C)=O)C(c3ccc(OC)cc3)C2)cc1` (single isomer, unassigned) [Compound 3A]: the AC50 was no more than 1 µM. For the same compound, the Emax under setting [1] fell in the range of 130 to 200%.

Consider `COc1ccc(C2CC(c3ccc(NS(=O)(=O)c4ccc(F)cc4)cc3)=NN2C(C)=O)cc1` (single isomer, unassigned) [Compound 12A], for which the AC50 fell in the range of 10 to 100 µM. Moreover, the Emax under setting [1] is no more than 130%. Taken in the same sequence, the figures for `CC(=O)N1N=C(c2ccc(NS(=O)(=O)c3ccc(F)cc3)cc2)CC1c1ccc(F)cc1` (single isomer, unassigned) [Compound 35A] were no more than 1 µM and no more than 130%. For `CCS(=O)(=O)Nc1ccc(C2=NN(C(C)=O)C(c3ccc4c(c3)OCCO4)C2)cc1` (stereo not shown) [Compound 4A], the AC50 is no more than 1 µM. Further, the Emax under setting [1] was 130 to 200%. The corresponding values for `COc1ccc(C2CC(c3ccc(NS(=O)(=O)c4c(F)cccc4F)cc3)=NN2C(C)=O)cc1` (stereo not shown) [Compound 5A] are no more than 1 µM and no less than 200%. Taken in the same sequence, the figures for `COc1ccc(C2CC(c3ccc(NS(=O)(=O)c4ccc5c(c4)OCCO5)cc3)=NN2C(C)=O)cc1` (stereo not shown) [Compound 7A, N-(4-(1-acetyl-5-(4-methoxyphenyl)-4,5-dihydro-1H-pyrazol-3-yl)phenyl)-2,3-dihydrobenzo[b][1,4]dioxine-6-sulfonamide] were 1 to 10 µM and 130 to 200%. On to `CC(=O)N1N=C(c2ccc(NS(=O)(=O)c3ccc(F)cc3)cc2)CC1c1ccc2c(c1)OCCO2` (stereo not shown) [Compound 8A, N-(4-(1-Acetyl-5-(2,3-dihydrobenzo[b][1,4]dioxin-6-yl)-4,5-dihydro-1H-pyrazol-3-yl)phenyl)-4-fluorobenzenesulfonamide], for which the AC50 lay in the range of 1 to 10 µM. The Emax under setting [1] was 130 to 200%. Taken in the same sequence, the figures for `CC(=O)N1N=C(c2ccc3c(c2)CCN3S(C)(=O)=O)CC1c1ccc2c(c1)OCCO2` (stereo not shown) [Compound 9A, 1-(5-(2,3-dihydrobenzo[b][1,4]dioxin-6-yl)-3-(1-(methylsulfonyl)indolin-5-yl)-4,5-dihydro-1H-pyrazol-1-yl)ethanone] were 10 to 100 µM and no more than 130%. Taken in the same sequence, the figures for `CCNS(=O)(=O)c1ccc(C2=NN(C(C)=O)C(c3ccc(OC)cc3)C2)cc1` (stereo not shown) [Compound 10A, 4-(1-acetyl-5-(4-methoxyphenyl)-4,5-dihydro-1H-pyrazol-3-yl)-N-ethylbenzenesulfonamide] were no more than 1 µM and 130 to 200%. Turning to `COc1ccc(C2CC(c3ccc(NS(=O)(=O)c4c(F)cccc4F)cc3)=NN2C(=O)c2ccco2)cc1` (stereo not shown) [Compound 11A, 2,6-Difluoro-N-(4-(1-(furan-2-carbonyl)-5-(4-methoxyphenyl)-4,5-dihydro-1H-pyrazol-3-yl)phenyl)benzenesulfonamide], the AC50 lay in the range of 1 to 10 µM. Besides, the Emax under setting [1] is no less than 200%. The corresponding values for `COc1ccc(C2CC(c3ccc(NS(=O)(=O)c4c(F)cccc4F)cc3)=NN2C(=O)c2ccccn2)cc1` (stereo not shown) [Compound 14A, 2,6-Difluoro-N-(4-(5-(4-methoxyphenyl)-1-picolinoyl-4,5-dihydro-1H-pyrazol-3-yl)phenyl)benzenesulfonamide] are 1 to 10 µM and no more than 130%. `COc1ccc(C2CC(c3ccc(NS(=O)(=O)c4c(F)cccc4F)cc3)=NN2C(=O)c2cccnc2)cc1` (stereo not shown) [Compound 15A, 2,6-difluoro-N-(4-(5-(4-methoxyphenyl)-1-nicotinoyl-4,5-dihydro-1H-pyrazol-3-yl)phenyl)benzenesulfonamide]: the AC50 was in the range of 1 to 10 µM. Moreover, the Emax under setting [1] was no less than 200%. Taken in the same sequence, the figures for `COc1ccc(C2CC(c3ccc(NS(=O)(=O)c4ccccc4)cc3)=NN2C(C)=O)cc1` (stereo not shown) [Compound 16A] were 1 to 10 µM and 130 to 200%. With `COc1ccc(C2CC(c3ccc(NS(=O)(=O)c4ccccc4)cc3)=NN2C(C)=O)cc1` (stereo not shown) [Compound 17A, N-(4-(1-Acetyl-5-(4-methoxyphenyl)-4,5-dihydro-1H-pyrazol-3-yl)phenyl)benzene sulfonamide], the half-maximal activity concentration (AC50) lay in the range of 1 to 10 µM. Also, the “Max activity Group” value under setting [1] is given as “C (C: ≦130%)”.

For the compound `COc1ccc(C2CC(c3ccc(NS(=O)(=O)c4ccccc4C(F)(F)F)cc3)=NN2C(C)=O)cc1` (stereo not shown) [Compound 20A], the AC50 is no more than 1 µM. For the same compound, the Emax under setting [1] is 130 to 200%. Taken in the same sequence, the figures for `CC(=O)N1N=C(c2ccc(NS(=O)(=O)c3ccc(F)cc3)cc2)CC1c1ccc2c(c1)CCO2` (stereo not shown) [Compound 22A, N-(4-(1-Acetyl-5-(2,3-dihydrobenzofuran-5-yl)-4,5-dihydro-1H-pyrazol-3-yl)phenyl)-4-fluorobenzenesulfonamide] were no more than 1 µM and 130 to 200%. The corresponding values for `CC(=O)N1N=C(c2ccc(NS(=O)(=O)c3ccc(F)cc3)cc2)CC1c1ccc(F)c(F)c1` (stereo not shown) [Compound 27A, N-(4-(1-Acetyl-5-(3,4-difluorophenyl)-4,5-dihydro-1H-pyrazol-3-yl)phenyl)-4-fluoro benzenesulfonamide] are 1 to 10 µM and no more than 130%. Take `COc1ccc(C2CC(c3ccc(NS(=O)(=O)c4cccc(Cl)c4)cc3)=NN2C(C)=O)cc1` (stereo not shown) [Compound 28A, N-(4-(1-Acetyl-5-(4-methoxyphenyl)-4,5-dihydro-1H-pyrazol-3-yl)phenyl)-3-chloro benzenesulfonamide]: the AC50 was 1 to 10 µM. Besides, the Emax under setting [1] is no more than 130%. The corresponding values for `COc1ccc(C2CC(c3ccc(NS(=O)(=O)c4ccc(OC)c(F)c4)cc3)=NN2C(C)=O)cc1` (stereo not shown) [Compound 44A] are no more than 1 µM and 130 to 200%.

Consider `CC(=O)N1N=C(c2ccc(NS(C)(=O)=O)cc2)CC1c1ccc2c(c1)OCO2` (stereo not shown) [Compound 52A], for which the AC50 is no more than 1 µM. The Emax under setting [1] was no more than 130%. Taken in the same sequence, the figures for `CCS(=O)(=O)Nc1ccc(C2=NN(C(=O)c3ccco3)C(c3ccc(OC)cc3)C2)cc1` (stereo not shown) [Compound 53A] were 1 to 10 µM and no less than 200%. Regarding `COc1ccc(C2CC(c3ccc(NS(C)(=O)=O)cc3)=NN2C(C)=O)cc1OC` (stereo not shown) [Compound 54A], the Max activity is 6% (30 μM).

For the compound `CCS(=O)(=O)Nc1ccc(C2=NN(S(C)(=O)=O)C(c3ccc(OC)cc3)C2)cc1` (stereo not shown) [Compound 55A], the Max activity was −5% (30 μM).

Consider `COc1cc(C2CC(c3ccc(NS(C)(=O)=O)cc3)=NN2C(C)=O)cc(OC)c1OC` (stereo not shown) [Compound 56A], for which the Max activity is given as −6% (30 μM). Consider `CCS(=O)(=O)Nc1ccc(C2=NN(C(C)=O)C(c3ccccc3F)C2)cc1` (stereo not shown) [Compound 57A], for which the half-maximal activity concentration (AC50) is no more than 1 µM. Moreover, under setting [1], the Emax is no more than 130%.

As for `CCS(=O)(=O)Nc1ccc(C2=NN(C(C)=O)C(c3ccc(Cl)o3)C2)cc1` (stereo not shown) [Compound 59A], the Max activity was 47% (30 μM). For the compound `CCS(=O)(=O)Nc1ccc(C2=NN(C(C)=O)C(c3cccs3)C2)cc1` (stereo not shown) [Compound 67A], the AC50 lay within 10 to 100 µM. Besides, the Emax under setting [1] fell in the range of 130 to 200%.

A word on the AC50: it is the midpoint of the concentration-response curve, whichever way the signal moves.
